Test results reported in patent publication EP0956028B1, “[…] INHIBITION OF […] GROWTH” (Purdue Research Foundation, priority 1996, dated 1998).

Tested on: A549 human lung carcinoma cells
Experiment: Tumor cell proliferation (cell count), indirect co-culture with submucosal tissue membrane
Format: cell-based
Method: Carcinoma ceil lines including A549 (human lung adenocarcinoma), MCF-7 (human breast carcinoma) and human colorectal carcinoma cell lines were obtained from American Type Cell Culture (ATCC). Cell cultures were routinely performed at 37°C in an incubator supplemented with 5% CO2 and 95% air. Media used were F-12 pius 10° o FBS (fetal bovine serum) (Gibco BRL) for the A549 cells and RPMI plus 10% FBS (Gibco BRL) for both the MCF-7 and colonic carcinoma cell lines. The inhibition of tumor cell growth on several different forms of submucosal tissue including PA-ST (submucosal tissue sterilized in peracetic acid), Native submucosal tissue (no further treatment after dissection), Gamma irradiated submucosal tissue and solubilized submucosal tissue was assessed.
Cancer cells were cultured in the presence of various forms of intestinal submucosal tissue at 37°C in an incubator supplemented with 5% CO2 and 95% air using the following procedures: • 1. Direct Contact: Intestinal submucosal tissue and the cultured cells physically contact one another. • 2. Indirect Contact: Intestinal submucosal tissue and the cultured cells are separated by a stainless steel mesh. • 3. Solubilized intestinal submucosal tissue added to the culture media. • 4. Cells are cultured on solubilized intestinal submucosa coated culture plate. The coating was applied by placing 1 ml of solubilized intestinal submucosal tissue in a 35mm culture plate, heating at 37°C for 2 hours, removing the excess intestinal submucosal tissue fluid by aspiration and washing the coated plates once with culture media.
• 1. […]
Tumor cells were plated at a cell density of approximately 5x10^5 cells/dish of 60 mm tissue culture dishes and grown until they reached about 50% confluence. Cell cultures were then subjected to the following treatments in triplicates: 1) control, cells grown in media only; 2) addition of different quantities of solubilized submucosal tissue (200-800 µl); 3) co-culture with submucosal tissue membranes of different sizes (indirect co-culture). […]

CC(=O)OO [Peracidic Acid, peracetic acid]
Cell Count (x10^5) (day 2 of treatment) (100 µl of Peracidic Acid, A549): 18.81 ± 2.59 x10^5
% of Control (100 µl of Peracidic Acid, A549 cell count, day 2 of treatment): 97%
inhibitory effect on cell proliferation (added exogenously to tumor cells): no significant inhibitory effect
